Source: patent publication US10517889B2, “Modulators of SMAD7 expression” (Ionis Pharmaceuticals, Inc., priority 2017, dated 2019)
Strand notation (5' to 3'): a small letter for the sugar, then the base; units joined by * are phosphorothioate-linked, units joined directly phosphodiester-linked; [ ] holds rarer units or linkages, { } end groups; capitals alone tell only the bases. e = 2'-O-(2-methoxyethyl) (MOE); [5mC] = 5-methylcytosine; d = 2'-deoxy (DNA)

Key:
human SMAD7 mRNA [1] = assay: Antisense inhibition of human SMAD7 mRNA expression in Hep3B cells by 5-10-5 MOE gapmers, single concentration, electroporation, RT-PCR (Example 1, Study 1 and 2); assay type: cell-based; conditions: for % Inhibition of SMAD7 mRNA: electroporation with 15,000 nM antisense oligonucleotide (Study 2); for % Inhibition: Study 2, electroporation with 15,000 nM antisense oligonucleotide
Summary of the method: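 Readout is percent SMAD7 mRNA inhibition versus untreated cells, measured by qRT-PCR (RTS5062) and corrected for total RNA by RIBOGREEN. Oligonucleotide, 5,000 nM or 15,000 nM, was delivered by electroporation into Hep3B cells at 20,000 per well. RNA was collected about 24 h later.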

human SMAD7 mRNA [2] = assay: Dose-dependent inhibition of human SMAD7 mRNA expression in Hep3B cells (Example 3, Study 1 and 2); assay type: cell-based; conditions: electroporation; for % inhibition of SMAD7 mRNA expression: approximately 16 hours; for IC50: Study 1 (312.5-20000 nM)
Summary of the method: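 Hep3B cells, 20,000 per well, electroporated with antisense oligonucleotide at 0.31, 1.25, 5.00 or 20.00 μM (first series) or 0.74, 2.22, 6.67 or 20.00 μM (second series). After ~16 h, SMAD7 mRNA measured by RT-qPCR (RTS5062), normalised to RIBOGREEN total RNA. Percent inhibition vs untreated cells; IC50 derived.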

[3] = electroporation, 15,000 nM, approximately 24 hours, relative to untreated control cells, gapmers targeting SEQ ID NO: 1 and 2
[4] = 312.5 nM, Study 1, relative to untreated control cells
[5] = 5-10-5 MOE gapmers targeting SEQ ID NO: 1 and 2
[6] = electroporation, 15,000 nM antisense oligonucleotide (Study 2), 5-10-5 MOE gapmers targeting SEQ ID NO: 1 and 2

Substance	% inhibition of SMAD7 mRNA expression (human SMAD7 mRNA [1]; [3]) [%]	% inhibition of SMAD7 mRNA expression (human SMAD7 mRNA [2]; [4]) [%]	% inhibition of SMAD7 mRNA expression (human SMAD7 mRNA [2]; 1250.0 nM, Study 1) [%]	% inhibition of SMAD7 mRNA expression (human SMAD7 mRNA [2]; 5000.0 nM, Study 1) [%]	% inhibition of SMAD7 mRNA expression (human SMAD7 mRNA [2]; 20000.0 nM, Study 1) [%]	IC50 (human SMAD7 mRNA [2]) [µM]	% Inhibition of SMAD7 mRNA (human SMAD7 mRNA [1]; [5]) [%]	% inhibition of SMAD7 mRNA expression (human SMAD7 mRNA [1]; [6]) [%]	% Inhibition (human SMAD7 mRNA [1]; [5]) [%]	% inhibition of SMAD7 mRNA expression (human SMAD7 mRNA [1]; electroporation, 5,000 nM, approximately 24 hours, relative to untreated control cells, gapmers targeting SEQ ID NO: 1 and 2) [%]
771773 (antisense eT*e[5mC]*eT*eT*eT*dT*d[5mC]*dG*d[5mC]*dA*dT*d[5mC]*d[5mC]*dT*d[5mC]*eA*eG*eG*eA*eA) [compound 771773]	57	0	0	0	42	> 20	–	–	–	–
771776 (antisense e[5mC]*eT*e[5mC]*eA*eG*d[5mC]*dA*dA*dG*d[5mC]*dT*d[5mC]*dA*dG*dT*eT*e[5mC]*e[5mC]*eT*eG) [compound 771776]	–	10	13	36	67	9	54	38	–	–
771777 (antisense e[5mC]*e[5mC]*e[5mC]*eT*e[5mC]*dA*dG*dT*d[5mC]*dT*d[5mC]*dA*dG*dA*dT*eA*eA*e[5mC]*eA*eG) [compound 771777]	–	0	0	27	50	8	–	50	–	–
771778 (antisense eT*eG*eA*eG*eT*dA*dA*dA*d[5mC]*dA*dA*dT*dA*d[5mC]*d[5mC]*e[5mC]*eT*e[5mC]*eA*eG) [compound 771778]	–	48	0	37	55	> 20	–	66	–	–
771782 (antisense eT*eA*eG*eG*eA*d[5mC]*dT*dG*dG*dA*dA*dG*dA*dG*d[5mC]*eT*eT*eT*eG*eG) [compound 771782]	–	0	9	27	38	> 20	–	–	50	–
771786 (antisense eA*eG*e[5mC]*eT*e[5mC]*dA*dA*dA*d[5mC]*dT*dT*dT*dG*dA*dA*eG*e[5mC]*e[5mC]*eT*eT) [compound 771786]	–	2	0	53	40	> 20	–	56	–	–
771788 (antisense e[5mC]*e[5mC]*eA*eA*e[5mC]*dT*d[5mC]*dT*dG*dA*dA*d[5mC]*dG*dG*dA*eA*eA*eG*eA*eA) [compound 771788]	–	1	0	0	0	> 20	–	–	30	–
771793 (antisense eA*eA*eG*eT*e[5mC]*d[5mC]*d[5mC]*dT*dA*dA*d[5mC]*dG*dA*d[5mC]*d[5mC]*eA*eG*eG*e[5mC]*e[5mC]) [compound 771793]	–	16	33	38	57	12	–	58	–	–
771794 (antisense eG*eA*eA*eG*e[5mC]*dA*dA*dG*dT*d[5mC]*dA*d[5mC]*dT*dG*d[5mC]*e[5mC]*eT*eT*e[5mC]*eT) [compound 771794]	–	0	0	27	41	> 20	–	68	–	–
771795 (antisense e[5mC]*eG*eT*e[5mC]*eT*dG*d[5mC]*dG*dG*d[5mC]*dA*dA*dA*dA*d[5mC]*e[5mC]*e[5mC]*eA*e[5mC]*e[5mC]) [compound 771795]	–	9	22	51	58	8	–	–	59	53
771797 (antisense eG*e[5mC]*eA*e[5mC]*eA*dG*dA*d[5mC]*dT*dG*d[5mC]*d[5mC]*dA*dA*dA*eT*e[5mC]*eA*e[5mC]*eA) [compound 771797]	62	1	0	15	35	> 20	–	–	–	–
771799 (antisense e[5mC]*eT*eT*e[5mC]*e[5mC]*dA*dA*d[5mC]*dA*d[5mC]*dA*dT*dG*d[5mC]*dT*e[5mC]*eT*eG*e[5mC]*eA) [compound 771799]	–	0	8	28	48	> 20	–	–	57	–
771808 (antisense e[5mC]*e[5mC]*e[5mC]*e[5mC]*eA*dA*dA*dG*dT*d[5mC]*d[5mC]*dA*d[5mC]*dG*d[5mC]*eT*e[5mC]*eA*eT*eG) [compound 771808]	–	10	0	23	66	16	54	32	–	–
771815 (antisense e[5mC]*eT*e[5mC]*e[5mC]*e[5mC]*dT*dT*dT*dT*d[5mC]*dA*d[5mC]*dT*dG*d[5mC]*eT*e[5mC]*e[5mC]*eA*e[5mC]) [compound 771815]	–	0	0	22	46	> 20	–	–	70	–
